# Test results published in patent publication US20120208781A1, “AMINOGLYCOSIDE DOSING REGIMENS” (Achaogen, Inc., priority 2009, published 2012).
# Read-outs that look alike come from different tables or passages of the source.
# Columns and labels:
# [1] = system: E. coli; test: MIC, further Brooklyn patient isolates: E. coli; type: cell-based; set-up: unit not given beside the values; conditions: E. coli (n = 3071)
# Protocol: (§1) Minimum inhibitory concentrations (MIC) were determined by reference Clinical and Laboratory Standards Institute (CLSI) broth microdilution methods per M7-A7 [2006]. Briefly, serial two-fold dilutions of Compound 1 and comparator AGs (together, “the test compounds”) were prepared at 2× concentration in appropriate diluent. The dilutions were mixed in 96-well assay plates with bacterial inoculum. Bacteria were suspended in sterile saline and added to each assay plate to obtain a final concentration of 5.5×10^5 CFU/mL. The plates were incubated at 35° C. for 20 hours in ambient air. […] After incubation, assay plates were read using a microtiter plate reader at 600 nm.
# (§2) Further studies analyzed a greater number of unique patient isolates obtained from Brooklyn, N.Y. hospitals (including those species described above). These species included Acinetobacter, E. coli, Enterobacter, Klebsiella, and Pseudomonas.
# [2] = system: Enterobacter; test: MIC, further Brooklyn patient isolates: Enterobacter; type: cell-based; set-up: unit not given beside the values; conditions: Enterobacter (n = 206)
# Protocol: as §1, §2
# [3] = system: Klebsiella; test: MIC, further Brooklyn patient isolates: Klebsiella; type: cell-based; set-up: unit not given beside the values; conditions: Klebsiella (n = 1151)
# Protocol: as §1, §2
# [4] = system: rat kidney; test: Rat nephrotoxicity model: kidney histopathology (H&E); type: in vivo, Sprague-Dawley rats; conditions: rats, 14 d once-daily
# Protocol: This rat nephrotoxicity study design used 14 days of once-daily dosing of aminoglycosides in adult Sprague-Dawley rats. Rats were allowed full access to food and water, and aminoglycosides were dosed subcutaneously at 1 mL/kg dosing volume, formulated in water. Nephrotoxicity was assessed by monitoring changes in serum markers of glomerular filtration rate (GFR), namely blood urea nitrogen (BUN) and serum creatinine. Microscopic examination of kidney slices after fixation and hematoxylin and eosin (H&E) staining was also utilized, scoring for tubular dilation, cellular casts, interstitial inflammation, and regenerative changes to the tubules.
# [5] = system: rat kidney; test: Rat nephrotoxicity model: serum markers of GFR (BUN, serum creatinine); type: in vivo, Sprague-Dawley rats; conditions: dose-response for BUN elevation
# [6] = system: P. aeruginosa (PA); test: MIC, broth microdilution, Brooklyn hospital isolates: P. aeruginosa; type: cell-based; conditions: PA (n = 33)
# Protocol: (§3) In another study, the activity of Compound 1 against a collection of contemporary Gram-negative bacteria was determined. Unique patient isolates of P. aeruginosa (PA), A. baumannii (AB), K. pneumoniae (KP), E. coli (EC), and Enterobacter spp. (EB) from prior surveys at 16 Brooklyn, N.Y. hospitals were selected based on resistance patterns. The majority of isolates were fingerprinted by automated ribotyping. MICs were performed by broth microdilution. PCR was used to identify aminoglycoside-modifying enzymes (AMEs) in AB and KP and the KPC gene in Enterobacteriaceae (EN). The expression of the efflux genes mexA, C, E and X in PA, and adeB in AB was assessed by real-time RT-PCR.
# [7] = system: E. coli (EC); test: MIC, broth microdilution, Brooklyn hospital isolates: E. coli; type: cell-based; conditions: EC (n = 32)
# Protocol: as §3
# [8] = system: Enterobacter spp. (EB); test: MIC, broth microdilution, Brooklyn hospital isolates: Enterobacter spp.; type: cell-based; conditions: EB (n = 30)
# Protocol: as §3
# [9] = system: K. pneumoniae (KP); test: MIC, broth microdilution, Brooklyn hospital isolates: K. pneumoniae; type: cell-based; conditions: KP (n = 71)
# Protocol: as §3
# [10] = system: A. baumannii (AB); test: MIC, broth microdilution, Brooklyn hospital isolates: A. baumannii; type: cell-based; conditions: AB (n = 38)
# Protocol: as §3
# [11] = system: Gram-negative and Gram-positive clinical isolates; test: MIC, CLSI broth microdilution, 235 worldwide isolates (all); type: cell-based; conditions: 235 isolates
# Description: In the first study, a total of 235 isolates were collected from medical centers worldwide and tested for susceptibility to Compound 1 and comparator agents by CLSI broth microdilution methods. […] Non-ENT GN pathogens included WT P. aeruginosa (PSA) and Acinetobacter spp. (ACB), and carbapenem (CARB)-R strains, including those with MBL and OXA enzymes, SA and coagulase-negative staphylococci (CoNS) included oxacillin-susceptible (MSSA/MS-CoNS) and —R (MRSA/MR-CoNS) strains.
# as §1
# [12] = system: hearing function; conditions: guinea pig, in vivo
# Protocol: The ototoxicity of aminoglycosides was investigated in 28-day studies in guinea pigs (executed at MPI Research Inc., Mattawan, Mich.). […] Animals assigned to the study had body weights within ±20% of the mean body weight. The vehicle and positive control articles were administered daily for 14 days during the study via bolus subcutaneous injection in the scapular region on the back of each animal. The control group received the vehicle in the same manner as the treated groups. Individual doses were based on the most recent body weights. […] The dose levels for these studies were selected based upon published accounts of aminoglycoside ototoxicity in the guinea pig using similar dosing regimes (e.g., Brummett, A. R. et al., J. Antimicrob Chemother, 1978 May; 4 Suppl A:73-83; Kitasato, I. et al., Chemotherapy, 1990; 36(2):155-68). Doses were chosen to maximize exposure while avoiding significant nephrotoxicity, which would have confounded the analysis given that aminoglycosides are renally cleared.
# Clinical observations were conducted predose (Day 1), immediately following the completion of each vehicle or positive control article administration on dosing days, and daily thereafter. Body weights were measured and recorded predose (Day 1) and daily thereafter. Physical examinations were conducted pretest and on Day 28.
# Bilateral in-vivo electrophysiology (auditory brainstem response) examinations were conducted pretest and prior to the terminal necropsy. Hearing function changes were measured by comparing auditory brainstem response (ABR) values at the end of the study period versus pre-dosing values of each individual animal. […] Additional ketamine and xylazine were administered as necessary. […] Following ABR evaluations, yohimbine (1 mg/kg) was administered via intraperitoneal (IP) injection as a reversal agent. At study termination (Day 29), necropsy examinations were performed, and designated tissues were collected, examined and rated, and preserved for processing and histopathological evaluation, as described below.
# [13] = system: cochlear hair cells; test: Cytocochleogram analysis in 28-day guinea pig ototoxicity model; type: in vivo, guinea pigs; conditions: guinea pigs
# Protocol: Following euthanasia and whole body intravascular perfusion with 4% paraformaldehyde, the temporal bones of the left and right ears were removed. Gross middle ear assessments were performed using a dissecting microscope. […] Following gross middle ear assessment, the cochleas of the left ear were fixed by intrascalar perfusion with 4% paraformaldehyde. Cochlea tissues of both ears were placed in 4% paraformaldehyde for approximately 1 hour. Tissues were then transferred to 0.5% paraformaldehyde, stored refrigerated, and shipped on gel packs to the Kresge Hearing Research Institute, Ann Arbor, Mich., for further processing and cytocochleogram analysis.
# These guinea pig ototoxicity studies also included microscopic analysis of surgically dissected cochleas from each animal to assess hair cell damage (cytocochleograms). The underlying cause of aminoglycoside related hearing loss is damage to the hair cells of the auditory system after significant accumulation of aminoglycosides in the inner ear. In the cochlea, drug-induced hair cell loss typically progresses from the basal to the apical turns of the cochlea. Perception of high-frequency sounds, a function of the basal hair cells, is lost first; perception of low-frequency sounds, a function of the more apical hair cells, is the last to be lost (Selimoglu, E., Curr Pharm Des. 2007; 13(1):119-26). For obvious reasons, it is impractical to obtain cytocochleograms from each animal prior to dosing, and some hair cell loss is usually observed in control (vehicle dosed) animals in these guinea pig studies. This variability makes it difficult to determine whether hair cell loss observed post-treatment is due to the drug treatment, especially mild hair cell loss, […]
compound,measurement,setting,value
CO/N=C(\C(=O)N[C@@H]1C(=O)N2C(C(=O)O)=C(CSc3nc(=O)c(O)nn3C)CS[C@H]12)c1csc(N)n1 [CRO],MIC50,[1],≦0.25
same,MIC50,[2],≦0.25
"CO/N=C(\C(=O)N[C@@H]1C(=O)N2C(C(=O)[O-])=C(C[N+]3(C)CCCC3)CS[C@H]12)c1csc(N)n1 [FEP, cefepime]",MIC50,[1],≦0.25
same,MIC90,[1],≦0.25
same,MIC50,[2],≦0.25
"C[C@@H](O)[C@H]1C(=O)N2C(C(=O)O)=C(S[C@@H]3CN[C@H](C(=O)N(C)C)C3)[C@H](C)[C@H]12 [MEM, meropenem]",MIC50,[1],≦0.125
same,MIC90,[1],≦0.125
same,MIC50,[2],≦0.125
same,MIC50,[3],≦0.125
"NC[C@@H]1O[C@H](O[C@H]2[C@@H](O)[C@H](O[C@@H]3[C@@H](O)[C@H](N)C[C@H](N)[C@H]3O[C@H]3O[C@H](CO)[C@@H](O)[C@H](O)[C@H]3N)O[C@@H]2CO)[C@H](N)[C@@H](O)[C@@H]1O [Paromomycin, paromomycin]",Histopathology score (0 to 5 Scale): Casts,[4]; 30 mg/kg,0 +/− 0
same,Histopathology score (0 to 5 Scale): Dilation,[4]; 30 mg/kg,1 +/− 1
same,Histopathology score (0 to 5 Scale): Inflammation,[4]; 30 mg/kg,1.4 +/− 0.9
same,Histopathology score (0 to 5 Scale): Regeneration,[4]; 30 mg/kg,1.4 +/− 0.5
same,Histopathology score (0 to 5 Scale): Casts,[4]; 100 mg/kg,2.6 +/− 0.5
same,Histopathology score (0 to 5 Scale): Dilation,[4]; 100 mg/kg,3.2 +/− 0.4
same,Histopathology score (0 to 5 Scale): Inflammation,[4]; 100 mg/kg,3 +/− 0
same,Histopathology score (0 to 5 Scale): Regeneration,[4]; 100 mg/kg,4 +/− 0
same,Histopathology score (0 to 5 Scale): Casts,[4]; 300 mg/kg,0 +/− 0
same,Histopathology score (0 to 5 Scale): Dilation,[4]; 300 mg/kg,0 +/− 0
same,Histopathology score (0 to 5 Scale): Inflammation,[4]; 300 mg/kg,0 +/− 0
same,Histopathology score (0 to 5 Scale): Regeneration,[4]; 300 mg/kg,0 +/− 0
same,apparent relative nephrotoxicity (ranking),[5],Neomycin≈Gentamicin>Tobramycin>Apramycin≈Paromomycin>Amikacin
NCC[C@H](O)C(=O)N[C@@H]1C[C@H](N)[C@@H](O[C@H]2O[C@H](CN)[C@@H](O)[C@H](O)[C@H]2O)[C@H](O)[C@H]1O[C@H]1O[C@H](CO)[C@@H](O)[C@H](N)[C@H]1O [amikacin],Susceptible,[6],94%
same,MIC50,[6]; Pseudomonas aeruginosa,4 µg/mL
same,MIC90,[6]; Pseudomonas aeruginosa,16 µg/mL
same,Susceptible,[7],91%
same,MIC50,[7]; Escherichia coli,4 µg/mL
same,MIC90,[7]; Escherichia coli,16 µg/mL
same,Susceptible,[8],93%
same,MIC50,[8]; Enterobacter,4 µg/mL
same,MIC90,[8]; Enterobacter,16 µg/mL
same,Histopathology score (0 to 5 Scale): Casts,[4]; 10 mg/kg,0 +/− 0
same,Histopathology score (0 to 5 Scale): Dilation,[4]; 10 mg/kg,0.2 +/− 0.4
same,Histopathology score (0 to 5 Scale): Inflammation,[4]; 10 mg/kg,0.4 +/− 0.5
same,Histopathology score (0 to 5 Scale): Regeneration,[4]; 10 mg/kg,0.2 +/− 0.4
same,Histopathology score (0 to 5 Scale): Casts,[4]; 30 mg/kg,0 +/− 0
same,Histopathology score (0 to 5 Scale): Dilation,[4]; 30 mg/kg,0 +/− 0
same,Histopathology score (0 to 5 Scale): Inflammation,[4]; 30 mg/kg,0.4 +/− 0.5
same,Histopathology score (0 to 5 Scale): Regeneration,[4]; 30 mg/kg,0.2 +/− 0.4
same,Histopathology score (0 to 5 Scale): Casts,[4]; 100 mg/kg,0 +/− 0
same,Histopathology score (0 to 5 Scale): Dilation,[4]; 100 mg/kg,0.2 +/− 0.4
same,Histopathology score (0 to 5 Scale): Inflammation,[4]; 100 mg/kg,0.6 +/− 0.5
same,Histopathology score (0 to 5 Scale): Regeneration,[4]; 100 mg/kg,0.6 +/− 0.5
same,Histopathology score (0 to 5 Scale): Casts,[4]; 300 mg/kg,0 +/− 0
same,Histopathology score (0 to 5 Scale): Dilation,[4]; 300 mg/kg,1.2 +/− 0.8
same,Histopathology score (0 to 5 Scale): Inflammation,[4]; 300 mg/kg,1.2 +/− 0.4
same,Histopathology score (0 to 5 Scale): Regeneration,[4]; 300 mg/kg,1.4 +/− 0.5
same,Susceptible,[9],58%
same,MIC50,[9]; Klebsiella pneumoniae,16 µg/mL
same,MIC90,[9]; Klebsiella pneumoniae,64 µg/mL
same,Susceptible,[10],82%
same,MIC50,[10]; Acinetobacter baumannii,8 µg/mL
same,MIC90,[10]; Acinetobacter baumannii,64 µg/mL
same,overall sensitivity (S),[11],77.0%
same,"clinical observations, body weights, physical examinations, macroscopic observations",[12],no vehicle or positive control article-related changes in any dose group
same,number of animals with hearing loss,"[12]; male, Crl:HA (Albino Hartley), 75 mg/kg, 14 days",1 of 6
same,number of animals with hearing loss,"[12]; male, Crl:HA (Albino Hartley), 150 mg/kg, 14 days",2 of 6
same,ABR threshold shift,"[12]; male, Crl:HA (Albino Hartley), 300 mg/kg/day, 14 days",> 15 dB
same,hearing loss (ABR threshold changes),"[12]; male, Crl:HA (Albino Hartley), sc, 300 mg/kg, 14 days","hearing losses from moderate at 4 kHz, to severe at 10 kHz, and to profound at 20 kHz"
same,apparent relative nephrotoxicity (ranking),[5],Neomycin≈Gentamicin>Tobramycin>Apramycin≈Paromomycin>Amikacin
same,animals with minimal loss of outer hair cells,[13]; 75 mg/kg/day,3/6
same,animals with minimal loss of outer hair cells,[13]; 150 mg/kg/day,3/6
same,animals with large loss of outer hair cells,[13]; 300 mg/kg/day,All animals
same,animals with some loss of inner hair cells,[13]; 300 mg/kg/day,3/6
